Reference: patent publication US10617693B2, “Methods of treating and/or preventing actinic keratosis” (Athenex, Inc., priority 2017, dated 2020)

Experiments:
[1] = system: AK lesions on the dorsal forearm; test: Phase 1 study KX01-AK-01-US: AK lesion counts and clearance; assay type: in vivo, human
Description: KX-01 was administered topically on treatment days. […] Standardized photography of the treatment area was performed.

[2] = system: subjects with AK on the dorsal forearm; conditions: human, in vivo
Description: A Phase 1, single-center, safety, tolerability and pharmacokinetic study of KX-01 was performed on subjects with AK on the dorsal forearm. This was an open-label, uncontrolled, nonrandomized, sequential group clinical trial conducted at a single investigational center in the United States. The primary objectives of the study were to assess the safety, tolerability and pharmacokinetics of KX-01 in subjects with AK. The secondary objective was to evaluate the activity of KX-01 administered topically to the dorsal forearm in subjects with AK.
KX-01 was administered topically on treatment days. All subjects were monitored for safety and tolerability that included LSRs, AEs, vital signs, clinical laboratory tests, ECGs, and physical examinations at baseline and at pre-defined time points during treatment and follow-up on days 1, 2, 3, 4, 5, 8, 10, 17, 31 and 45.
LSRs (erythema, flaking/scaling, crusting, swelling, vesiculation/pustulation, erosion/ulceration) were assessed by the investigator or trained designee using a 4-point scale according to the protocol. The subject's assessment of the symptoms (stinging/burning, pruritus) associated with irritation of the treatment area was evaluated on a 4-point scale (0=none, 1=mild, 2=moderate, 3=severe). Subjects were queried for spontaneously reported AEs at each study visit before assessment of LSRs. LSRs and AEs were reported separately. All LSRs were to be followed to resolution or stabilization.

**Q.** What does the source list for O=C(Cc1ccc(-c2ccc(OCCN3CCOCC3)cc2)cn1)NCc1ccccc1 [KX-01]?
**A.** Complete Clearance on Day 45 (100% reduction in AK lesions vs Baseline), n/N (%) ([1]; Cohort 2: 2 mg/100 cm^2 QD x3 days): 0/10; AK lesion count, median (min, max) ([1]; Day 1 (Baseline), Cohort 1: 0.5 mg/25 cm^2 QD x3 days): 5.0 (4, 5); AK lesion count, median (min, max) ([1]; Day 1 (Baseline), Cohort 2: 2 mg/100 cm^2 QD x3 days): 11.5 (8, 16); AK lesion count, median (min, max) ([1]; Day 1 (Baseline), Cohort 3: 0.5 mg/25 cm^2 QD x5 days): 6.0 (5, 6); AK lesion count, median (min, max) ([1]; Day 1 (Baseline), Cohort 4: 2 mg/100 cm^2 QD x5 days): 11.0 (10, 16); AK lesion count, median (min, max) ([1]; Day 4, Cohort 1: 0.5 mg/25 cm^2 QD x3 days): 5.0 (4, 5); AK lesion count, median (min, max) ([1]; Day 4, Cohort 2: 2 mg/100 cm^2 QD x3 days): 9.0 (6, 16); AK lesion count, median (min, max) ([1]; Day 10, Cohort 1: 0.5 mg/25 cm^2 QD x3 days): 5.0 (4, 5); AK lesion count, median (min, max) ([1]; Day 10, Cohort 2: 2 mg/100 cm^2 QD x3 days): 7.0 (6, 11); AK lesion count, median (min, max) ([1]; Day 10, Cohort 3: 0.5 mg/25 cm^2 QD x5 days): 5.0 (5, 6); AK lesion count, median (min, max) ([1]; Day 10, Cohort 4: 2 mg/100 cm^2 QD x5 days): 10.0 (10, 10); AK lesion count, median (min, max) ([1]; Day 17, Cohort 1: 0.5 mg/25 cm^2 QD x3 days): 4.5 (3, 5); AK lesion count, median (min, max) ([1]; Day 17, Cohort 2: 2 mg/100 cm^2 QD x3 days): 7.0 (5, 15); AK lesion count, median (min, max) ([1]; Day 17, Cohort 3: 0.5 mg/25 cm^2 QD x5 days): 5.0 (4, 6); AK lesion count, median (min, max) ([1]; Day 17, Cohort 4: 2 mg/100 cm^2 QD x5 days): 10.0 (10, 11); AK lesion count, median (min, max) ([1]; Day 31, Cohort 1: 0.5 mg/25 cm^2 QD x3 days): 3.5 (1, 5); AK lesion count, median (min, max) ([1]; Day 31, Cohort 2: 2 mg/100 cm^2 QD x3 days): 7.0 (1, 15); AK lesion count, median (min, max) ([1]; Day 31, Cohort 3: 0.5 mg/25 cm^2 QD x5 days): 1.0 (0, 6); AK lesion count, median (min, max) ([1]; Day 31, Cohort 4: 2 mg/100 cm^2 QD x5 days): 6.0 (0, 11); AK lesion count, median (min, max) ([1]; Day 45, Cohort 1: 0.5 mg/25 cm^2 QD x3 days): 2.5 (0, 4); AK lesion count, median (min, max) ([1]; Day 45, Cohort 2: 2 mg/100 cm^2 QD x3 days): 4.0 (1, 10); AK lesion count, median (min, max) ([1]; Day 45, Cohort 3: 0.5 mg/25 cm^2 QD x5 days): 0.5 (0, 4); AK lesion count, median (min, max) ([1]; Day 45, Cohort 4: 2 mg/100 cm^2 QD x5 days): 4.5 (0, 12); Change in AK lesion counts over time ([1]; all 4 cohorts): reductions in mean baseline AK lesion counts over time; Activity of 5-day versus 3-day regimen ([1]; rates of complete and partial clearance): 5-day regimen may provide better activity than the 3-day regimen; Serious adverse event (SAE) or death [2]: no serious adverse event (SAE) or death
